Source: the supplement of paper PMC10307832

Columns and labels:
Experiment in all cases: relative viability (nuclei count vs DMSO), 5 days (fraction); higher = more cells survive
Foretinib = compound: COc1cc2c(Oc3ccc(NC(=O)C4(C(=O)Nc5ccc(F)cc5)CC4)cc3F)ccnc2cc1OCCCN1CCOCC1 [Foretinib] (anchor plate); settings: 0.25 µM
Procedure, shortened: (§1)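 Lung cancer cell lines were seeded into 1536-well plates, kept overnight at 37 °C and pinned with five library-drug doses (not always all listed) spaced by √10. After 5 days, nuclei were Hoechst-stained, imaged at 4× and counted with MetaXpress. Viability is treated-well nuclei over vehicle-well nuclei, taken as a median across plates. Plates needed control CV below 25% and at least one doubling.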

RO-3306 = compound: C1=CC2=C(C=CC(=C2)C=C3C(=O)NC(=NCC4=CC=CS4)S3)N=C1 [RO-3306]
Procedure, shortened: as §1

[1] = compound: O=S(=O)(c1ccccc1)N(CC(F)(F)F)c1ccc(C(O)(C(F)(F)F)C(F)(F)F)cc1
Procedure, shortened: as §1

RO-3306 + Crizotinib = compound: C1=CC2=C(C=CC(=C2)C=C3C(=O)NC(=NCC4=CC=CS4)S3)N=C1 [RO-3306] + C[C@@H](Oc1cc(-c2cnn(C3CCNCC3)c2)cnc1N)c1c(Cl)ccc(F)c1Cl [Crizotinib] (partner 1 µM)
Procedure, shortened: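 After 5 days of treatment, lung cancer cells in 1536-well plates were fixed and stained in a single step (final 0.05% Triton X-100, 1% formaldehyde, 1 ug/ml Hoechst) and their nuclei counted on 4× images. Treatment had been applied by pin tool the day after seeding as one drug alone or as a fixed anchor-drug dose with five library-drug doses (not always all listed) in √10 steps. Relative viability is the nuclei count of treated wells divided by that of vehicle wells, and values are medians of duplicate plates.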

## UMC-11
Foretinib
  relative viability: 1.03
RO-3306; 0.01 µM
  relative viability: 1.09
RO-3306; 0.03162 µM
  relative viability: 0.855
RO-3306; 0.1 µM
  relative viability: 0.969
RO-3306; 0.3162 µM
  relative viability: 1.05
RO-3306; 1 µM
  relative viability: 0.828
[1]; 0.8 µM
  relative viability: 1.06
[1]; 2.53 µM
  relative viability: 0.985
[1]; 8 µM
  relative viability: 1.11
RO-3306 + Crizotinib; first compound 0.01 µM
  relative viability: 0.49
RO-3306 + Crizotinib; first compound 0.03162 µM
  relative viability: 0.555
RO-3306 + Crizotinib; first compound 0.1 µM
  relative viability: 0.62
RO-3306 + Crizotinib; first compound 0.3162 µM
  relative viability: 0.906
RO-3306 + Crizotinib; first compound 1 µM
  relative viability: 0.48
